Measured values taken from patent US20250018066A1, “Ophthalmic dye composition” (Vitreq B.V., priority 2016, published 2025).

Assays:
[1] = Density of dye solutions; assay type: physicochemical
Procedure: (§1) Density and viscosity can be changed by the addition of diglycerol or a gadolinium complex or a combination of both. For sinking of the dye solution to the bottom of the eye, density is more important than viscosity; the latter reduces, however, possible mixing for solutions which sink slowly. The density of dye solutions can be increased from 1.003 grams per milliliter (at 25° C.) to 1.028, when 10 volume % of a 0.5 M solution of gadopentetate is added to a final concentration of gadopentetate of 0.05 M, and to 1.048 when 20 volume % of a 0.5 M solution of gadopentetate is added to a final concentration of 0.10 M. The resulting viscosities are 1.125 mPa·s and 1.258 mPa·s, respectively. For a 5% addition of named gadopentetate solution, a density of 1.016 gram per milliliter and a viscosity of 1.117 mPa·s is obtained.

[2] = Viscosity of dye solutions; assay type: physicochemical
Procedure: as §1

[3] = Osmotic pressure contribution of density-increasing agent; assay type: physicochemical; settings: in words
[4] = test system: retina; assay: Staining of porcine retina with dye preparations, contrast quantified from photographs; settings: in words; compared with prior art agents like PEG
Source text: The eyes were kept on ice until used.
The upper part of the eye, including the cornea, iris, and lens, was removed with an orbital section. The vitreous body was removed to get access to the retina. The retina was rinsed three times with phosphate-buffered saline (PBS). Dye solutions were applied to the retina for 30 seconds, and the retina was then washed three times with PBS.
As an example of the visual impression of the stained retina, photos were taken. For photographic recording of the result of the staining, the staining was limited by applying a glass tube of a diameter of 10 mm. Care was taken that no dye could reach the cellular layer of the retina. […]
As an example of quantification, the pictures in FIGS. 1A-J were quantified by measuring the optical densities (expressed as grey values on a scale from 0 (black) to 255 (white)) of a rectangular area within the stained portion of the retina and a rectangular area outside the stained portion as background (ensuring that no blood vessels where present in the rectangular areas), and calculating the ratio of the grey values of the background to that of the stain. […] Toxicity was measured in ARPE cells. […] Toxicity is expressed as percent reduction of cell viability in comparison to a control incubated with PBS instead of the dye solution.

[5] = 10 volume % of 0.5 M solution added, final concentration 0.05 M
[6] = 20 volume % of 0.5 M solution added, final concentration 0.10 M

Q: For `O=C([O-])CN(CCN(CC(=O)[O-])CC(=O)O)CCN(CC(=O)[O-])CC(=O)O.[Gd+3]` [gadopentetate], which density ([1]; 5% addition of 0.5 M solution) is on record?
A: 1.016 gram per milliliter

Q: What about the density [1, 5] of the same molecule?
A: 1.028 grams per milliliter

Q: What about the density [1, 6] of the same molecule?
A: 1.048 grams per milliliter

Q: What about the viscosity ([2]; 5% addition of 0.5 M solution) of the same molecule?
A: 1.117 mPa·s

Q: What about the viscosity [2, 5] of the same molecule?
A: 1.125 mPa·s

Q: And the viscosity [2, 6]?
A: 1.258 mPa·s

Q: Which “osmotic pressure / osmotic activity” value [3] does the source give for `OCC(O)COCC(O)COCC(O)CO` (stereo not drawn) [triglycerol] here?
A: without increasing osmotic pressure substantially

Q: For `OCC(O)COCC(O)CO` (stereo not drawn) [diglycerol], which density ([1]; addition of 5 weight percent) is on record?
A: 1.020 grams per milliliter

Q: And the viscosity ([2]; addition of 5 weight percent)?
A: 1.191 mPa·s

Q: What about the “effect of density agent on staining efficiency” value [4] of the same molecule?
A: does not decrease staining efficiency

Q: What about the “osmotic pressure / osmotic activity” value [3] of the same molecule?
A: without increasing osmotic pressure substantially

Q: What about the “osmotic pressure / osmotic activity” value ([3]; listed as DG) of the same molecule?
A: not even osmotically active
